Like-named read-outs stand apart in the source and are kept apart here.

The test system of one data set is Caco-2 cells. Put plainly: Caco-2 permeability assay (apical to basal). The conditions noted are these: 50 μM, 2 hours at 37° C. Type of data set: in vitro ADME, human. An excerpt:
Caco-2 cells are widely used as an in vitro model for prediciting human drug absorption. The Caco-2 cell line is derived from human colorectal carcinoma, and when cultured, the cells spontaneously differentiate into monolayers of polarized enterocytes.
Experiments were done using the CacoReay permeability kit (ReadyCell, Barcelona, Spain).
On the same week of the reception of the kit, the shipping medium of the cells was liquefied according to user's manual provided with the kit, after which the shipping medium was replaced with fresh Dulbecco's Modified Eagle's Medium (DMEM, low-glucose).
Three days later, equivalent to day 20 of cell culture, the quality of the barrier system and the presence of tight junctions between the cells was checked by measuring the trans endothelial electrical resistance (TEER) of the cell barrier. […]
For the transport experiments (apical to basal), the cells were incubated with the solutions containing the compounds for 2 hours at 37° C. Afterwards, the content of the compartments was recovered and analyzed by HPLC (Column C18 Sunfire 100 mm×4.6 mm, […], 100 Å, Waters; Flow rate 1 mL/min; Gradient 0-100% B in 8 min A=0.045% Trifluoracetic acid in H2O and B 0.036% Trifluoracetic acid in acetonitrile, detection at 220 nm). […]
In the Caco-2 permeability assay, the percentage of transport (T %) for the compounds was calculated according to the following equation: […]

Data set [1] is described as follows: In vivo brain exposure (plasma and brain AUC). The settings on record: male, mouse, mice, 5 mg/kg, read-out: % BBB (brain exposure, plasma and brain AUC ratio). On the procedure:
For each compound, twenty-four adult male mice, aged 7-8 weeks on the day of experiment, were used for the study and were allocated randomly between the groups. The experiments were performed on 3 groups of animals as described in the table below:
After compound administration, terminal blood was performed at several time points after intraperitoneal (Comp. ex. 3) or oral administration (Ex. 1).
After transcardiac perfusion with phosphate buffered saline, brains were also collected. All the samples were stored at −80° C. until bioanalysis.
The plasma samples were thawed at room temperature (RT), and the samples were protein precipitated with a 2-fold volume of acetonitrile, containing 20 ng/mL phenacetin as an internal standard. The samples were mixed throughout, followed by centrifugation for 20 min at 2,200×g. The supernatants were diluted 1:1 with 150 mM phosphate buffered saline (pH 7.4) and pipetted onto UPLC 96-well plates to wait for the analysis. […]
Levels of the compounds of Comp. Ex. 3 and example 1 were quantified from mouse plasma and brain. Samples were analyzed using a fit-on-purpose bioanalytical method using a UPLC/QE-Orbitrap-Mass Spectroscopy.
The concentration (ng/mL) of the compounds along time was plotted and the area under the curve (AUC) in plasma and brain tissue was calculated using Graphpad Prism™ 5.0. The plasma to brain ratio was calculated as follows: […]

A further data set has as its system MK-801-treated mice. Put plainly: Novel object recognition (NOR) task, MK-801-induced cognitive deficit. It is filed as in vivo, male C57/Bl6 mice. The conditions noted are these: for % discrimination index: mean ± s.e.m.
Data set [2] in a line: Plasma levels after oral administration. It is filed as in vivo.
Where [3] appears, read: compound 5 mg/kg intraperitoneal 35 min before test + MK 801 0.2 mg/kg sc.
Where [4] appears, read: compound 5 mg/kg oral (po) 35 min before test + MK 801 0.2 mg/kg sc.

With `COc1cc(C(=O)N2CC(F)(F)C[C@H]2C(=O)N2CCC[C@H]2C#N)cc(OC)c1OCc1ccccc1` [Comp Ex. 3, (S)-1-((2S)-1-(4-(benzyloxy)-3,5-dimethoxybenzoyl)-4,4-difluoropyrrolidine-2-carbonyl)pyrrolidine-2-carbonitrile], the “% T (percentage of transport), Caco-2” value in the data set with Caco-2 cells is listed as 5.7%. Further, the Kp in data set [1] (IP) amounted to 0.21. Also, the “% discrimination index” value with MK-801-treated mice (setting [3]) was determined as 42.7 ± 3.3 %; in the data set on MK-801-treated mice (setting [4]) it was 20.1 ± 2.9%. Besides, the “Efficacy after oral administration (in words)” value with MK-801-treated mice (oral administration) is on record as “no efficacy”. For the same compound, the “Detected plasma levels of the drug (in words)” value in data set [2] is “very low”.

As to `N#C[C@@H]1CCCN1C(=O)[C@@H]1C[C@@H](F)CN1C(=O)c1cc(F)c(OCc2ccccc2)c(F)c1` [Example 1, (S)-1-((2S,4R)-1-(4-(benzyloxy)-3,5-difluorobenzoyl)-4-fluoropyrrolidine-2-carbonyl)pyrrolidine-2-carbonitrile], the “% T (percentage of transport), Caco-2” value in the data set with Caco-2 cells is given as 45%. For the same compound, in data set [1] (PO), the Kp was determined as 0.253. Further, the figures for the “% discrimination index” value in the data set on MK-801-treated mice (setting [3]) and in the data set on MK-801-treated mice (setting [4]) were 30.3 ± 3.9% and 42.1 ± 5.1 %, respectively.

The values are drawn from patent US12459891B2, “1-[1-(4-benzyloxy-3,5-difluoro-benzoyl)-4-fluoro-pyrrolidine-2-carbonyl]-pyrrolidine-2-carbonitrile” (ACCURE THERAPEUTICS, S.L., priority 2020, dated 2025).
